Laboratory results taken from patent US12006542B2, “Force-modulated hybridization for visualizing nucleic acid length and function” (University of Houston System, priority 2017, dated 2024).

What was measured:
[1] = tested on: DNA duplex, enzyme-binding segment for DpnII; test: Force-modulated drug-DNA binding determination with DNA-cleaving enzyme DpnII (visual particle immobilization); details: DpnII present; after ~1 pN force
Excerpt: (§1) To determine the exact binding site of drugs on nucleic acids, a derived scheme contains a magnetically labeled DNA and its complementary strand, in the presence of the drug to be analyzed and a DNA-cleaving enzyme. The binding site of the drug can be precisely determined by force modulation following surface immobilization.
(§2) FIG. 1D can be utilized to illustrate a system 100 for measuring drug-DNA binding. A magnetically labeled DNA strand 102 is hybridized with its complementary strand 104, in the presence of a drug molecule 106 and a DNA-cleaving enzyme 107. If the drug binds with the DNA specifically at the location of the enzyme, the enzyme will not be able to cleave the duplex. Consequently, the magnetic particles will be able to be immobilized on the surface via the biotin 105 on complementary strand 104, showing yellowish color in image 108(a) and being assigned as “1”. […] Thus, the magnetic particles will not be able to bind with the surface because of the absence of a functional group (such as biotin 105 shown in FIG. 1D) to interact with the matching functional group on the surface, showing as clear and being assigned as “0” in image 108(b).
(§3) The derived scheme presented in FIG. 1D was used to precisely determine the binding sites of drug molecules. […]

[2] = tested on: DNA duplex, enzyme-binding segment for EcoRI; test: Force-modulated drug-DNA binding determination with DNA-cleaving enzyme EcoRI (visual particle immobilization); details: EcoRI present; after ~1 pN force
Excerpt: as §1, §2, §3

DNA = test: Laser transmission quantification of immobilized particles at different drug concentrations; format: binding; details: fitting of transmission profile vs drug concentration
Excerpt: The detection was achieved by using a photodetector (DET100A, Thorlabs) coupled with a voltmeter. […] Fitting of the profile yielded a binding constant of 9±2×10^4 M^−1, consistent with the results using a sensitive atomic magnetometer.

[3] = tested on: DNA duplex, EcoRI binding site; test: Multiplexed sample wells, ultrasound force through a piezo plate, EcoRI; details: 100 μM drug, lane 4
Description: (§4) A shown in FIG. 7A, a new system was designed consisting of a puncher, an incubator, and a displayer. After incubating the sample, the puncher will be used to break the bottom of the incubator so the sample will be transferred to the corresponding wells on the displayer. The bottom of the displayer was functionalized, for example with streptavidin, so that magnetic particles will be able to be immobilized through a labeled DNA duplex, for example with biotin. A mechanical force is then applied on the displayer followed by final inspection and measurement.
(§5) The samples within each lane were under identical conditions. 1: DNA duplex with 100 μM daunorubicin and DpnII; 2: DNA duplex with 100 μM netropsin and DpnII; 3: DNA duplex; 4: DNA duplex incubated with 100 μM daunomycin and EcoRI; 5: DNA duplex with 100 μM netropsin and ECoRI. After applying ultrasound through a piezo plate, only the particles in lanes 2 and […] were removed, indicating weak binding between netropsin and CTAG (lane 2), and between daunomycin and the EcoRI binding site (lane 4).

[4] = tested on: segment of the DNA duplex specified by DpnII; test: Dissociation force of drug-DNA binding, segment chosen by DpnII; details: for order of binding strength (dissociation force): DNA segment chosen by addition of DpnII, FIG. 5C red section
Description: (§6) The dissociation force can be further used to quantitatively distinguish the binding strength of different drug molecules at each and every specific nucleotide sequence. […] This segment is specifically chosen because of the addition of enzyme DpnII.

[5] = relative to doxorubicin; cited from earlier work
[6] = tested on: segment of the DNA duplex specified by EcoRI; test: Dissociation force of drug-DNA binding, segment specified by EcoRI; details: FIG. 5C blue section
Description: as §6

DNA duplex, CTAG (DpnII) = test: Multiplexed sample wells, ultrasound force through a piezo plate, DpnII; format: binding; details: 100 μM drug, lane 2
Description: as §4, §5

## COc1cccc2c1C(=O)c1c(O)c3c(c(O)c1C2=O)C[C@@](O)(C(C)=O)C[C@@H]3O[C@H]1C[C@H](N)[C@H](O)[C@H](C)O1 [daunomycin]
[1]
  blocking of DpnII binding site on DNA duplex (particle immobilization): blocked the binding site of DpnII
[2]
  blocking of EcoRI on DNA duplex (particle immobilization): could not
DNA
  binding constant: 9±2×10^4 M^−1
[3]
  binding with the EcoRI binding site after ultrasound: weak binding
[4]
  order of binding strength (dissociation force): daunomycin, doxorubicin > epirubicin >> daunomycin >> netropsin

## COc1cccc2c1C(=O)c1c(O)c3c(c(O)c1C2=O)C[C@@](O)(C(=O)CO)C[C@@H]3O[C@H]1C[C@H](N)[C@H](O)[C@H](C)O1 [doxorubicin]
[4]
  order of binding strength (dissociation force): daunomycin, doxorubicin > epirubicin >> daunomycin >> netropsin

## COc1cccc2c1C(=O)c1c(O)c3c(c(O)c1C2=O)C[C@@](O)(C(=O)CO)C[C@@H]3O[C@H]1C[C@H](N)[C@@H](O)[C@H](C)O1 [epirubicin]
[5]
  toxicity in chemotherapy: less toxic
[4]
  order of binding strength (dissociation force): daunomycin, doxorubicin > epirubicin >> daunomycin >> netropsin
[4]; comparison of DpnII and EcoRI segments
  sequence selectivity of DNA binding: more sequence-selective than doxorubicin

## Cn1cc(NC(=O)c2cc(NC(=O)CN=C(N)N)cn2C)cc1C(=O)NCCC(=N)N [netropsin]
[1]
  blocking of DpnII binding site on DNA duplex (particle immobilization): does not interfere with the binding of DpnII
[2]
  blocking of EcoRI on DNA duplex (particle immobilization): able to block EcoRI
[6]
  rank of binding strength (dissociation force): second strongest
DNA duplex, CTAG (DpnII)
  binding with CTAG after ultrasound: weak binding
[4]
  order of binding strength (dissociation force): daunomycin, doxorubicin > epirubicin >> daunomycin >> netropsin
